Where two headings read alike, the source gives them in different places.

A short description of series [1]: Plasma protein binding (rapid equilibrium dialysis). The class given is in vitro ADME. The note with it: diluted to 10% in PBS, pH 7.4. As for the experimental part: Human plasma was purchased from Innovative Research, Inc (Novi, MI, USA). Dog (beagle), rat (Sprague Dawley) and hamster (golden Syrian) plasma were procured from Valley Biomedical Products and Services, Inc. (Winchester, VA, USA). Mouse (BALB/c) plasma was collected in-house (animals sourced from Monash Animal Services, Monash University). All plasma was stored frozen at -20°C until use.
Plasma protein binding was assessed using rapid equilibrium dialysis (RED) according to methods published previously ([10]). […] Parallel spiked aliquots of 10% plasma were used to assess compound stability under the same incubation conditions. At the completion of the dialysis period, aliquots were taken from the donor and dialysate chambers to obtain measurements of the total and free concentration, respectively. The pH of the matrix and dialysate were confirmed to be within pH 7.4 ± 0.1 for the duration of the experiment.
Dialysis was conducted for 6 h and parallel non-dialyzed samples were included to confirm the absence of compound degradation. Binding to hepatocytes (at a cell density of 1 x 10^6 cells/mL) was calculated from the measured microsomal binding (at 1 mg/mL) as described previously ([26]). The fraction unbound (fu) was determined from the ratio of the dialysate to the donor concentration, assuming that the system was at steady state at the end of the dialysis period. For plasma, the data were corrected for the dilution factor to give a binding value for neat plasma according to previously published methods ([27]).

Series [2] is described as follows: In vitro cytotoxicity assay. In kind it is cell-based. The settings on record: human, U2OS human osteosarcoma cells.
A short description of series [3]: In vitro metabolism, liver microsomes. In kind it is in vitro ADME, human. The procedure:
Compounds were spiked into microsomal matrix prepared in 0.1 M pH 7.4 phosphate buffer containing magnesium chloride (final concentration of 3.3 mM), equilibrated for 5-10 min at 37°C. The reaction was initiated with the addition of freshly prepared solution of NADPH (final 1.3 mM). Control samples without co-factor were included for comparison. Aliquots of the reaction mixtures were taken periodically over 60 min and quenched with acetonitrile containing internal standards (metolazone and diazepam). Quenched samples were maintained on ice for approximately 20-30 min, centrifuged (for 5 min) and the supernatant was analyzed by LC-MS.
In vitro intrinsic clearance (CLint, μL/min/mg or μL/min/10^6 cells) values were calculated from the apparent first order degradation rate constant divided by the microsome concentration or the hepatocyte cell number (10^6 viable cells/mL). In vitro CLint values were then divided by the fraction unbound in the in vitro test system (to give CLint,u) and scaled to in vivo values (mL/min/kg) using published physiological scaling factors ([28]). Blood clearance in each species was then calculated using the well-stirred model of hepatic extraction (equation 2) where Q is the hepatic blood flow and fu,blood is calculated from fu,plasma/B:P: [2] PredictedCLblood=Q x fu,blood x CLint,u/Q+fu,blood x CLint,u
Blood clearance values were converted to plasma clearance by multiplying by the B:P.

The test system of series [4] is L. donovani promastigote cultures. Kind of series: microbe, parasite or virus in culture. In kind it is cell-based. The note with it: Leishmania donovani. The procedure: The clonal L. donovani cell line LdBOB (derived from MHOM/SD/62/1S-CL2D) was grown as promastigotes at 28°C and as axenic amastigotes at 37°C, as described previously ([25]).
To examine the effects of test compounds on growth in 96-well plates, promastigote or axenic amastigote cultures seeded at 5 × 10^4 parasites mL^–1 were incubated in the presence of 2-fold serial dilutions of test compounds for 72 h. Following incubation, 50 μM resazurin was added to each well and fluorescence (excitation of 528 nm and emission of 590 nm) measured after a further 3 h incubation.
Starting at sublethal concentrations, drug concentrations in 5 independent cultures were increased in a stepwise manner, usually by 2-fold. […] Five clones (Res 1–5) were selected for further biological study.

For `Cc1[nH]c2nc(N)nc(C)c2c1-c1ccc(C#N)c2c1OCO2` [DNDI-6174], the fraction unbound at 24 h in series [1] (BALB/c, mouse) came to 0.12; in series [1] (Sprague Dawley, rat), 0.069; in series [1] (beagle, dog), 0.05; in series [1] (golden Syrian, hamster), 0.09; in series [1] (human) it was 0.059. In addition, in series [2], the CC50 was > 80000 nM. Moreover, the “Microsome predicted in vivo CLplasma” value in series [3] (Human) is reported as 0.86 mL/min/kg. The “In vitro Microsome CLint” value in series [3] (Human, 2 independent experiments, ± standard error of estimate) is on record as 7.2 ± 1.2 µL/min/mg. Further, the microsomal CLint at 0.5 µM in series [3] (human, liver microsomes, pH 7.4, Human, 2 independent experiments, ± standard error of estimate, read-out: In vitro Microsome CLint) was 6.4 ± 0.75 µL/min/mg. In addition, the EC50 amounted to 1276 ± 2 nM in series [4] (DDD01716002 Res 1, read-out: EC50 (representative curve, Fig. 2A)); 22 ± 2 nM in series [4] (WT, read-out: EC50 (representative curve, Fig. 2A)); 24 ± 1 nM in series [4] (Wild-type promastigotes, read-out: EC50 values); 779 ± 98 nM in series [4] (read-out: EC50 values, DDD01716002 Res 1 (S207P)); 829 ± 63 nM in series [4] (read-out: EC50 values, DDD01716002 Res 2 (G31A)); 84 ± 3 nM in series [4] (read-out: EC50 values, DDD01716002 Res 3 (F227I)). Also, the EC50 in series [4] (read-out: EC50 values, DNDI-6174 Res 1 (S35N/S206N)) was 431 ± 16 nM; in series [4] (read-out: EC50 values, DNDI-6174 Res 2 (D231E)), 3950 ± 228 nM; in series [4] (read-out: EC50 values, DNDI-6174 Res 3 (S207P)), 1500 ± 91 nM; in series [4] (read-out: EC50 values, DNDI-6174 Res 4 (G31A)), 2700 ± 145 nM; in series [4] (read-out: EC50 values, DNDI-6174 Res 5 (S206N)), 157 ± 5 nM.
